Measurements reported in PubChem BioAssay (NCI).
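In this assay, cells in 96-well plates receive the compound at five concentrations for 48 hours. Endpoints are linearly interpolated between the surrounding concentrations. GI50 is the concentration that inhibits growth by half. TGI marks complete inhibition of growth.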

Columns and labels:
Assay in all cases: NCI-60 cell line screen, 48 h
[1] = system: K-562 leukemia
[2] = system: KM12 colon
[3] = system: LOX IMVI melanoma
[4] = system: HOP-62 NSCLC
[5] = system: SK-MEL-5 melanoma
[6] = system: NCI-H460 lung
[7] = system: UACC-62 melanoma
[8] = system: M14 melanoma
[9] = system: HL-60(TB) leukemia
[10] = system: SK-OV-3 ovarian

SMILES	TGI [1] [µM]	TGI [2] [µM]	TGI [3] [µM]	TGI [4] [µM]	TGI [5] [µM]	TGI [6] [µM]	TGI [7] [µM]	TGI [8] [µM]	TGI [9] [µM]	TGI [10] [µM]	GI50 [1] [µM]	GI50 [2] [µM]	GI50 [4] [µM]	GI50 [5] [µM]	GI50 [6] [µM]	GI50 [10] [µM]	GI50 [7] [µM]	GI50 [8] [µM]	GI50 [9] [µM]
C1CNCCNCCN1	> 100	> 100	> 100	> 100	> 100	> 100	> 100	> 100	> 100	–	–	–	–	–	–	–	–	–	–
CCCSc1ccc2[nH]c(/N=C/c3ccco3)cc2c1	–	> 100	> 100	> 100	32.6	–	> 100	> 100	84.4	> 100	–	–	–	–	–	–	–	–	–
NCCSc1nc2ccccc2c(=O)n1-c1ccccc1	> 100	> 100	> 100	> 100	> 100	–	> 100	> 100	90.7	> 100	–	–	–	–	–	–	–	–	–
C[C@H](N)C(=O)Nc1ccc(-c2nc3ccccc3s2)cc1	37.6	31.1	> 100	72.9	43	34.8	35.4	24.1	–	57.2	–	–	–	–	–	–	–	–	–
Cc1cc(C2(O)C=C(C(C)(C)C)C(=O)C(C(C)(C)C)=C2)c(C)cc1C1(O)C=C(C(C)(C)C)C(=O)C(C(C)(C)C)=C1	> 100	> 100	> 100	> 100	> 100	–	> 100	> 100	> 100	> 100	–	–	–	–	–	–	–	–	–
O=C(Cc1ccccc1)NN1C(=O)/C(=C\c2cccc(O)c2)SC1=Nc1ccccc1	–	> 100	–	> 100	> 100	> 100	> 100	> 100	–	> 100	–	–	–	–	–	–	–	–	–
CCCCCCCCCCCCCCCCCC(=O)O[C@H](COC(=O)CCCCCCCCCCC)COC(=O)CCCCCCCCCCCCCCC	> 100	–	> 100	> 100	> 100	> 100	> 100	> 100	> 100	> 100	–	–	–	–	–	–	–	–	–
Cc1ccn2c(=O)cc(-c3ccccc3)nc2c1	> 100	> 100	–	> 100	> 100	> 100	> 100	> 100	> 100	> 100	–	–	–	–	–	–	–	–	–
O=c1[nH]nc(Cc2ccc([N+](=O)[O-])cc2)n1CCO	> 100	> 100	> 100	–	> 100	> 100	> 100	> 100	> 100	> 100	–	–	–	–	–	–	–	–	–
OCC1OC(n2cnc3c(Cl)nc(Nc4ccccc4)nc32)CC1O (configuration not stated)	> 100	> 100	36.5	> 100	> 100	> 100	> 100	> 100	–	> 100	–	–	–	–	–	–	–	–	–
c1cc2nnnn2nc1N1CCCC1	> 100	> 100	> 100	–	> 100	> 100	> 100	> 100	> 100	> 100	–	–	–	–	–	–	–	–	–
CNC(=O)Oc1ccc(-c2cn3cc(OC(=O)NC)ccc3n2)cc1	> 100	> 100	> 100	> 100	> 100	> 100	> 100	> 100	–	> 100	–	–	–	–	–	–	–	–	–
Cc1ccc(S(=O)(=O)OCC(=O)O)cc1	> 100	–	> 100	> 100	> 100	> 100	> 100	> 100	> 100	–	–	–	–	–	–	–	–	–	–
Nn1c(CCCCCCCCc2nnc(COc3ccc(Cl)cc3)n2N)nnc1COc1ccc(Cl)cc1	> 100	> 100	–	–	> 100	> 100	> 100	> 100	–	> 100	–	–	–	–	–	–	–	–	–
Cc1ccc(-c2cc(N)n(-c3nc4c(c(=O)n(C)c(=O)n4C)n3C)n2)cc1	> 100	> 100	–	63.9	> 100	> 100	> 100	> 100	> 100	> 100	–	–	–	–	–	–	–	–	–
NC1=NS(=O)(=O)Nc2nc(-c3ccc(Cl)cc3)c(-c3ccc(Cl)cc3)nc21	> 100	> 100	> 100	> 100	> 100	> 100	> 100	> 100	> 100	–	–	–	–	–	–	–	–	–	–
Cc1cn(C2CC(n3cc(Cn4cc(Br)c(=O)[nH]c4=O)nn3)C(CO)O2)c(=O)[nH]c1=O (configuration not stated)	–	> 100	> 100	> 100	> 100	–	> 100	> 100	–	> 100	–	–	–	–	–	–	–	–	–
COc1cc(C2SCC(=O)N2c2ccc(-c3ccc(-n4c(-c5ccccc5)nc5ccccc5c4=O)cc3)cc2)cc(OC)c1OC (configuration not stated)	> 100	62.9	–	85.5	> 100	> 100	> 100	> 100	> 100	> 100	–	–	–	–	–	–	–	–	–
Cc1cc(C)cc(Nc2cc(=O)[nH]c(=O)[nH]2)c1	> 100	> 100	> 100	> 100	> 100	> 100	–	> 100	> 100	–	–	–	–	–	–	–	–	–	–
C[C@]12CCc3nc(Nc4ccccc4)sc3C1=CC[C@@H]1[C@@H]2CC[C@]2(C)/C(=N/NC(N)=S)CC[C@@H]12	> 100	> 100	–	> 100	> 100	> 100	> 100	> 100	17	> 100	1.97	6.17	17.6	5.9	6.14	82.7	5.85	3.71	3.03
C=CCCC(=O)CC(O)(C(F)(F)F)C(F)(F)F	> 100	> 100	> 100	–	> 100	> 100	> 100	> 100	> 100	> 100	–	–	–	–	–	–	–	–	–
O=c1[nH]/c(=C/c2ccc(OCc3ccccc3)cn2)c(=O)[nH]/c1=C/c1ccc(O)cc1	> 100	–	1.26	> 100	20.8	> 100	> 100	3.78	2.87	> 100	–	–	–	–	–	–	–	–	–
CC(=O)Nc1cc2c(s1)CCC1CC(=O)NN=C21 (configuration not stated)	> 100	> 100	> 100	> 100	> 100	> 100	> 100	> 100	> 100	–	–	–	–	–	–	–	–	–	–
